# Results taken from patent publication US20100120703A1, “COMPOSITIONS AND METHODS FOR TREATING CANCER” (priority 2007, published 2010).
# Assays:
# [1] = test system: HepG2 cells; test: cDNA microarray, drug toxicity and metabolism genes; type: cell-based, human; settings: HepG2 cells before and after SIN treatment
# Protocol: The advancement of nucleic acid array technology has made it possible to analyze the expression of multiple genes in a single experiment. The cDNA Microarray is used to characterize gene expression associated with a specific biological pathway in a more comprehensive and cost effective manner. The genes on the cDNA microarray membrane are targeted to the drug toxicity and metabolism pathways. It is a useful approach to study the biological activities of SIN.
# HepG2 cells were treated and harvested as described in the foregoing examples. The cell pellet was dissolved in 500 μl TRIzol® reagent (Invitrogen, CA, USA). The whole solution was allowed to stand at room temperature for 5 minutes. The solution was centrifuged at 14,000 rpm for 10 minutes at 4° C. The supernatant was collected in a new tube with 100 μl chloroform. After shaking and incubation for 10 minutes at room temperature, the solution was centrifuged at 14,000 rpm for 15 minutes at 4° C. Recentrifugation was necessary if the layer was not clear. The upper aqueous layer was carefully transferred into a new tube with 250 μl isopropanol. After shaking, the tube was allowed to stand at room temperature for 10 minutes for RNA precipitation. […]
# cRNA purification was performed with SuperArray Array Grade cRNA Cleanup Kit. […] The quality and quantity of the cRNA product were determined as described previously. […]
# [2] = test system: Clone 9 cells; test: Neutral red cell viability assay; type: cell-based, rat; settings: SIN up to 1,000 μM, 72 hours
# Description: The neutral red (NR) cytotoxicity assay is a chemosensitivity assay for measuring cell survival/viability, based on the ability of viable cells to incorporate and bind neutral red, a supravital dye. NR is a weak cationic dye that readily penetrates cell membranes by non-ionic diffusion, accumulating intracellularly in lysosomes, where it binds with anionic sites in the lysosomal matrix. Alterations of the cell surface or the sensitive lysosomal membrane lead to lysosomal fragility and other changes that gradually become irreversible. Such changes brought about by the action of xenobiotics result in a decreased uptake and binding of NR. It is thus possible to distinguish between viable, damaged, or dead cells. (Babich, H et al, 1990)
# Three different cell lines HepG2, WRL-68 and Clone 9 cell lines were used in the experiment. HepG2 is a human hepatoblastoma cell line. It is a well known cell model in anti-HCC studies (Alshatwi A A, et al, 2006). WRL-68 is a human normal liver embryo cell line that has a morphologic structure similar to hepatocytes and hepatic primary cultures (Gutierrez-Ruiz, et al, 1994). This cell line was used as the control. Clone 9 is the rat Sprague Dawley (SD) liver normal cell line. […]
# HepG2, WRL-68 and Clone 9 cells were grown in complete culture medium (RPMI or DMEM), trypsinized and washed. […] The color was measured at OD540nm.
# [3] = test system: rats previously treated with dimethylhydrazine (DMH); settings: cited from earlier work
smiles,measurement,setting,value
"C=CC/C(=N/OS(=O)(=O)[O-])S[C@@H]1OC(CO)[C@@H](O)C(O)C1O.[K+] (stereo partly shown) [SIN, sinigrin]",gene expression in drug toxicity and metabolism pathways,[1],many genes in drug toxicity and metabolism pathways were differentially expressed
same,cell viability of Clone 9 cells (healthy liver cells),[2],no decrease in cell viability was observed
same,apoptosis in colonic tissue vs DMH only,[3]; DMH treated rats,higher level of apoptosis
same,aberrant crypt foci in colonic tissue,[3]; sinigrin administered after DMH,suppresses induction of aberrant crypt foci
